Assays:
[1] = tested on: human normal fibroblasts; assay: MTT assay, cell proliferation effect in fibroblasts; type: cell-based; conditions: 48 h serum-free culture, untreated medium as control
Experimental: In order to examine a cell proliferation effect proving the effect of reducing skin wrinkles, an MTT assay (3-(4,5-dimethylthiazol-2-yl)-2,5-diphenyl tetrazolium bromide reduction method) was carried out using fibroblasts.
First, human normal fibroblasts were plated into a 96-well plate at a concentration of 2×10^5 cells/well and primarily cultured in 10% FBS (fetal bovine serum)-containing DMEM medium in conditions of 37° C. and 5% CO2 for 24 hours. After the primary culture, the cells were treated with varying concentrations of the inventive sample. Then, the medium was replaced with a serum-free medium, and the cells were secondarily cultured for 48 hours. After the secondary culture step, 100 μl of MTT solution was added to the medium. Then, the resulting solution was left to stand for 4 hours, and then the medium was removed. 100 μl of dimethyl sulfoxide solution was added to each well and stirred for 20 minutes, and then the absorbance of each well at 540 nm was measured with a microplate reader.
According to the method of Example 2, the cell proliferation effects of 75% methanol extract of the aril of nutmeg and fragrin A and austobailignan 7 which are isolated and purified thereof were measured. In the MTT assay, a culture medium not treated with the sample was used as a control group and measured for absorbance, and the analysis results are shown in Table 3 below.

[2] = tested on: matrix metalloproteinase-1 (MMP-1); assay: Western blot of matrix metalloproteinase-1 (MMP-1) expression in fibroblasts radiated with UV light; type: cell-based, human; conditions: for inhibition of expression of matrix metalloproteinase-1: UV 20 J/cm^2, given as 'higher than the negative control'; for expression of matrix metalloproteinase-1, result in words: 3, 5 and 10 μM, versus UV 20 J/cm^2 positive control, FIG. 3, FIG. 4; for inhibition at 3 µM / inhibition at 5 µM / inhibition at 10 µM: Homo sapiens, Fibroblast, light or radiation study, compared with UV 20 J/cm^2 treated positive control group, read-out: matrix metalloproteinase-1 (MMP-1) inhibitory activity effect
Experimental: Fibroblasts were cultured in a 60-mm dish at a concentration of 2×10^5 cells/ml to a confluence of about 85%. Before UV radiation, the medium was removed, and the cells were washed with PBS to remove a serum component therefrom, and then radiated with UV light at a dose of 20 J/cm^2. After the fibroblast cells were radiated with UV light, the cells were treated with each of the samples and cultured with serum free DMEM for 48 hours.
In order to measure the expression levels of matrix metalloproteinase-1 (MMP-1), Western blot was used, and the amount of total protein in the medium containing the fibroblasts cultured therein was quantified using the Bradford method.
The extracted protein was electrophoresed on 10% SDS-polyacrylamide gel, and then transferred to a nitrocellulose membrane. The membrane was blocked with 5% skim milk at room temperature for 1 hour in order to prevent it from being contaminated with other unknown proteins. Primary antibody to matrix metalloproteinase-1 was diluted in a blocking solution at a ratio of 1:1000 and allowed to react with the membrane at room temperature for 2 hours. After the primary antibody reaction, the membrane was washed three times with Tris-buffer saline Tween 20 (TBST) with shaking for 10 minutes each time. Secondary antibodies recognizing the primary antibodies to matrix metalloproteinase-1 was diluted in 5% skim milk at a ratio of 1:1000 and allowed to react with the membrane at room temperature for 1 hour. Then, the membrane was washed three times with tris-buffer saline Tween 20 with shaking for 10 minutes each time in the same manner as in the case of the primary antibody reaction, and then was developed by chemiluminescence.

[3] = tested on: hairless mouse (Skh; HR-1); assay: In vivo anti-wrinkle effect, skin application, skin replica; conditions: applied to skin: 50 μl of 6% (w/v) nutmeg extract or 20 mM macelignan; versus UV positive group; FIG. 7
Experimental: (§1) 6-week hairless mouse (Skh; HR-1) have a quarantine period for 1 week before experiment, and cared maintaining temperature with 23±3° C., relative humidity with 50±5° C., and 12 hours of day/night cycle (07:00-19:00/day time). They were fed with feed for mouse, and tap water. UV irradiations were performed 3 times per week in the same time, the amount of the UV irradiations were 50 mJ/cm^2 on 1st week, 100 mJ/cm^2 on 2nd week, 200 mJ/cm^2 on 3rd week, and 250 mJ/cm^2 on 4th and after 4th weeks. The groups were divided into 4 groups. Those were control, UV control, UV/nutmeg and UV/macelignan.
50 μl of 6% (w/v) of nutmeg extract and 20 mM macelignan solution were applied for the experiment. For the experiment, nutmeg extract and macelignan were disolved in ethanol:polyethylene glycol (7:3, v/v).
In FIG. 7, A is the normal group, B is the UV irradiated group, C is the nutmeg applying group, and D is the macelignan applying group.

[4] = tested on: hairless mouse (Skh; HR-1); assay: In vivo anti-wrinkle effect, oral administration, skin replica; conditions: oral: 200 mg/kg nutmeg or 20 mg/kg macelignan; versus UV positive group; FIG. 8
Experimental: as §1, with “UV/macelignan. 200 mg/kg of nutmeg and 20 mg/kg of macelignan were administered respectively by oral. For the experiment, nutmeg extract and macelignan were disolved in 0.25% CMC (carboxyl methyl celluose) solution.” for “UV/macelignan.”
In FIG. 8, A is the normal group, B is the UV irradiated group, C is the nutmeg administering group, and D is the macelignan administering group.

Compound | Proliferation effect (%) ([1]; 3 μg/ml) | Proliferation effect (%) ([1]; 5 μg/ml) | Proliferation effect (%) ([1]; 10 μg/ml) | inhibition of expression of matrix metalloproteinase-1 ([2]; 10 μM) | expression of matrix metalloproteinase-1, result in words [2] | inhibition at 3 µM [2] | inhibition at 5 µM [2] | inhibition at 10 µM ([2]; 10 μM) | effect on reducing wrinkle (skin replica), result in words [3] | effect on inhibiting wrinkle (skin replica), result in words [4] | inhibition of expression of matrix metalloproteinase-1 ([2]; 10 μg/ml)
COc1cc([C@@H]2OC(c3ccc4c(c3)OCO4)[C@@H](C)[C@@H]2C)ccc1O (some centres unmarked) [austobailignan 7, austrobailignan-7] | 104% | 105% | 110% | 65% | inhibited the expression of matrix metalloproteinase-1 with dose-dependent manners | – | – | – | – | – | –
C=CCc1cc(OC)c(OC(C)Cc2ccc(O)c(OC)c2)c(OC)c1 (centres unmarked) [fragrin A, 2-(4-allyl-2,6-dimethoxyphenoxy)-1-(4-hydroxy-3-methoxyphenyl)-propane] | 101% | 104% | 108% | 65% | inhibited the expression of matrix metalloproteinase-1 with dose-dependent manners | – | – | – | – | – | –
C/C=C/c1cc(OC)c2c(c1)[C@@H](C)C(c1ccc3c(c1)OCO3)O2 (some centres unmarked) [licarin E] | – | – | – | – | – | 35% | 47% | 73% | – | – | –
COc1cc(C[C@H](C)[C@H](C)Cc2ccc3c(c2)OCO3)ccc1O [macelignan] | – | – | – | – | – | 31% | 42% | 63% | inhibited wrinkle | inhibited wrinkle | –
O=C1O[C@H]([C@@H](O)CO)C(O)=C1O [vitamin-C, reference compound] | – | – | – | 20% | – | – | – | – | – | – | 20%

Source: patent US8435957B2, “Use of lignan compound for anti-wrinkle treatment” (Biocare Co., Ltd., priority 2007, dated 2013)
